The text below walks through data of patent publication US8343961B2, “Substituted heterocyclic compounds” (ArQule, Inc., priority 2009, dated 2013).

The target in test [1] is RET kinase (Homo sapiens, UniProt P07949). Description: RET Kinase Activity Assay. The class given is biochemical. Particulars: read-out: Ret, % INH, at 30 uM. On the procedure:
The disclosed compounds were assayed for their ability to inhibit the activity of RET kinase. Nunc Maxwasorb plates were coated with streptavidin by overnight incubation with 100 μL per well of 1 μg/mL Streptavidin in DPBS. Prior to the start of the experiment, the plates were washed with TBST (3×200 μL) and blocked for at least 1 hour by adding 150 μL of 5% BSA/TBST. The plates were washed with TBST (3×200 […]) and left dry immediately before the capture step.
The test articles and controls (Staurosporine and Sutent) were prepared using the following assay buffer @ 3× desired final concentration (50 mM […], 0.02 mg/mL BSA, 10 mM MgCl2, 0.1 mM Na3VO4, 1 mM EGTA, 75 μM ATP0.01% NP-40, 2 mM DTT in 10% glycerol/water). In a reaction plate, were added rapidly 20 μL test article (or control) and 20 μL RET (0.25 ng/4 final concentration). The plate was incubated for 15 minutes. To the reaction plate was added 20 μL of Pyk-2 (0.25 ng/4 final concentration). The plate was incubated at room temperature for one hour.
From the reaction plate, 50 μL was transferred to the streptavidin coated plate. The capture plate was incubated at room temperature for 30 minutes then washed 6× with TBST. To the capture plate was added 100 μL/well of Cell Signaling anti-phospho tyrosine at a dilution of 1:3000 in 2% BSA/TBST. The plate was incubated for one hour at room temperature then washed 6× with TBST. To the capture plate was added 100 μL/well of Alkaline Phosphatase Tagged Goat anti Mouse Antibody at a dilution of 1:4000 in 2% BSA/TBST. The plate was incubated for one hour at room temperature then washed 6× with TBST. The fluorescent readout was initiated by the addition of 100 μL/well of Attophos reagent (6 mg/10 mL). The reading was done on the Perkin Elmer Envision system.

The target of test [2] is T1, EphA8 (Homo sapiens, UniProt P29322).
T1 sequence (P29322 28-1005): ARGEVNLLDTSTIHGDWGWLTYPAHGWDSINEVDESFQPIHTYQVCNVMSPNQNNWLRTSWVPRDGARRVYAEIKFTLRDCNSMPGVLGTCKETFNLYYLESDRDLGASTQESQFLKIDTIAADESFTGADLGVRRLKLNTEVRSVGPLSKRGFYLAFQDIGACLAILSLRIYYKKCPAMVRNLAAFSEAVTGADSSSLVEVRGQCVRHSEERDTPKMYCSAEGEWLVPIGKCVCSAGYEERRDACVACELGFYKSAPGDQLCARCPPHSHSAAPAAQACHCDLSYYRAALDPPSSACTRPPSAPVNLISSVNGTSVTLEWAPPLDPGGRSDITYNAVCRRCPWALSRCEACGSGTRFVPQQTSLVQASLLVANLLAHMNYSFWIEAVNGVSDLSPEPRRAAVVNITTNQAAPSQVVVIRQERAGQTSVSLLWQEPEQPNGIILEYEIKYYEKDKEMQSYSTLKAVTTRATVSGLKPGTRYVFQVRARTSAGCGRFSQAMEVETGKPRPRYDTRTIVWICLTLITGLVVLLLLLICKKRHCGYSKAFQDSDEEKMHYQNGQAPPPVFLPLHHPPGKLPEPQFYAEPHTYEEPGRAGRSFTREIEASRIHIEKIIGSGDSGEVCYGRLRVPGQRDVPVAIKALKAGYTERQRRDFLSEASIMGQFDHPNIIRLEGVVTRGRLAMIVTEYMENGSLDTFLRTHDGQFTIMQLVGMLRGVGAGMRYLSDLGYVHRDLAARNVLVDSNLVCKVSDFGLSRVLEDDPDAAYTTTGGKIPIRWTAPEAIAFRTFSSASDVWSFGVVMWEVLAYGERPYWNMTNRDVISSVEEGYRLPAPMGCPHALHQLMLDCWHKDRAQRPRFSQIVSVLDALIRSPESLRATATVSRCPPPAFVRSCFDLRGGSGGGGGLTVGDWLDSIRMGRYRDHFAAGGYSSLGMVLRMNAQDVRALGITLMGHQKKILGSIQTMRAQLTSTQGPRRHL
As to the kind of experiment: EphA8 Kinase Activity Assay. The class given is biochemical. Particulars: read-out: EphA8, % INH, at 30 uM. As for the experimental part: Nunc Maxisorb plates are coated with streptavidin by overnight incubation with 100 μL per well of 1 μg/ml Streptavidin in DPBS. Prior to the start of the experiment, the plates are washed with TBST (3×200 μL) and blocked for at least 1 hour by adding 150 μL of 5% BSA/TBST. The plates are washed with TBST (3×200 μL/well) and left dry immediately before the capture step.
The test articles and control (Staurosporine) are prepared using the following assay buffer @ 3× desired final concentration (50 mM Tris-HCl, 0.02 mg/ml BSA, 10 mM MgCl2, 0.1 mM Na3VO4, 1 mM EGTA, 12.5 μM ATP, 0.01% NP-40, 1 mM DTT in 10% glycerol/water). In a reaction plate are added rapidly 20 μl test article (or control) and 20 μl EphA8 (0.12 ng/μl final concentration). The plate is incubated for 15 minutes. To the reaction plate is added 20 μl of Pyk-2 (0.75 ng/μl final concentration). The plate is incubated at room temperature for one hour. From the reaction plate, 50 μl is transferred to the streptavidin coated plate. The capture plate is incubated at room temperature for 30 minutes, then washed 6× with TBST. To the capture plate is added 100 μL/well of Cell Signaling anti-phospho tyrosine at a dilution of 1:3000 in 2% BSA/TBST. The plate is incubated for one hour at room temperature then washed 6× with TBST. To the capture plate is added 100 μL/well of Alkaline Phosphatase Tagged Goat anti Mouse Antibody at a dilution of 1:4000 in 2% BSA/TBST. The plate is incubated for one hour at room temperature then washed 6× with TBST. The fluorescent readout is initiated by the addition of 100 μl/well of Attophos reagent (6 mg/10 mL). The reading is done on the Perkin Elmer Envision system.

Each structure is given as a SMILES string.

Sequence of RET kinase (P07949 29-1114): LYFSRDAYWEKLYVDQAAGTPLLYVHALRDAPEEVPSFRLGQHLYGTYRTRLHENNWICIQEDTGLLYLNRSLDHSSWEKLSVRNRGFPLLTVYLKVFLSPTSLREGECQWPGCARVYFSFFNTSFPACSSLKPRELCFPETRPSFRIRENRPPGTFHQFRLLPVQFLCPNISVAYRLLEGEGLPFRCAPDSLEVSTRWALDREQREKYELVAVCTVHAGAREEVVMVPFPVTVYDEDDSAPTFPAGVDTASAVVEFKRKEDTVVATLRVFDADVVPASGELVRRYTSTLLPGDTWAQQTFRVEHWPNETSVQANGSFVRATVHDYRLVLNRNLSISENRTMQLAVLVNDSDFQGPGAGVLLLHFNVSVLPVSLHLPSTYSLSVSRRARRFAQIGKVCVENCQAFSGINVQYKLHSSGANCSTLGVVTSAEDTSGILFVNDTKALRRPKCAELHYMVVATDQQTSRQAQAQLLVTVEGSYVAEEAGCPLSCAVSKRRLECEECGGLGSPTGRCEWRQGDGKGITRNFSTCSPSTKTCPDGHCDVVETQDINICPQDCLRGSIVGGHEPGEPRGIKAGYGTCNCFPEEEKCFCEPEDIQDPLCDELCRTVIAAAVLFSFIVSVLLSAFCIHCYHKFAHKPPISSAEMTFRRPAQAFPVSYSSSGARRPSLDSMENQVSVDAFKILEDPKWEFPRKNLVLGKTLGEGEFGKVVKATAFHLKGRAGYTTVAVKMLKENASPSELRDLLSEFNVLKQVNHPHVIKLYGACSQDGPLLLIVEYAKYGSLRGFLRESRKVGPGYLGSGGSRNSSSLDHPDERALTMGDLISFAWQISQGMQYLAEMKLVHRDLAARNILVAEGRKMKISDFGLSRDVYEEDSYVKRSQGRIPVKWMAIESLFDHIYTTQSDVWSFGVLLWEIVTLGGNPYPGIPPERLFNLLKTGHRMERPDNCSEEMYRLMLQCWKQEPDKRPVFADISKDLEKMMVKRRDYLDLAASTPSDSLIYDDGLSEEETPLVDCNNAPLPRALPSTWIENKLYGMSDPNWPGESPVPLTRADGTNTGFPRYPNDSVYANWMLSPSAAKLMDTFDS

As to `Nc1nc(N2CCN(Cc3ccc(Cl)c(Cl)c3)c3ccccc3C2)c2cn[nH]c2n1` [Compound 43, 4-[1-(3,4-dichlorobenzyl)-1,2,3,5-tetrahydro-4H-1,4-benzodiazepin-4-yl]-1H-pyrazolo[3,4-d]pyrimidin-6-amine], the inhibition at 30 µM in test [1] and in test [2] was 50 to 79% each time.
As for `Cc1ccccc1CN1CCN(c2nc(N)nc3[nH]ncc23)Cc2ccccc21` [Compound 12, 4-[1-(2-methylbenzyl)-1,2,3,5-tetrahydro-4H-1,4-benzodiazepin-4-yl]-1H-pyrazolo[3,4-d]pyrimidin-6-amine], the inhibition at 30 µM in test [1] and in test [2] was < 50% each time.
With `Nc1nc(N2CCN(Cc3ccc(F)c(F)c3)c3ccccc3C2)c2cn[nH]c2n1` [Compound 47, 4-[1-(3,4-difluorobenzyl)-1,2,3,5-tetrahydro-4H-1,4-benzodiazepin-4-yl]-1H-pyrazolo[3,4-d]pyrimidin-6-amine], the inhibition at 30 µM was 50 to 79% in test [1] and < 50% in test [2].
Taken in the same sequence, the figures for `COc1ccc(OC)c(CN2CCN(c3nc(N)nc4[nH]cnc34)Cc3ccccc32)c1` [Compound 35, 6-[1-(2,5-dimethoxybenzyl)-1,2,3,5-tetrahydro-4H-1,4-benzodiazepin-4-yl]-9H-purin-2-amine] were < 50% and < 50%.
Taken in the same sequence, the figures for `Nc1nc(N2CCN(Cc3ccc(Cl)c(Cl)c3)c3ccccc3C2)c2nc[nH]c2n1` [Compound 42, 6-[1-(3,4-dichlorobenzyl)-1,2,3,5-tetrahydro-4H-1,4-benzodiazepin-4-yl]-9H-purin-2-amine] were < 50% and < 50%.
The like results for `Nc1nc(N2CCN(CCCc3cccc(Cl)c3)c3ccccc3C2)c2cn[nH]c2n1` [Compound 8, 4-{1-[3-(3-chlorophenyl)propyl]-1,2,3,5-tetrahydro-4H-1,4-benzodiazepin-4-yl}-1H-pyrazolo[3,4-d]pyrimidin-6-amine] were, in that order, < 50% and < 50%.
As for `COc1cc2c(cc1OC)C(c1cccc(Cl)c1F)N(c1nc(N)nc3[nH]cnc13)CC2` (stereo not drawn) [Compound 49, 6-[1-(3-chloro-2-fluorophenyl)-6,7-dimethoxy-3,4-dihydroisoquinolin-2(1H)-yl]-9H-purin-2-amine], the inhibition at 30 µM in test [1] and in test [2] was < 50% each time.
Turning to `Cc1cccc(CN2CCN(c3nc(N)nc4[nH]ncc34)Cc3ccccc32)c1` [Compound 34, 4-[1-(3-methylbenzyl)-1,2,3,5-tetrahydro-4H-1,4-benzodiazepin-4-yl]-1H-pyrazolo[3,4-d]pyrimidin-6-amine], the inhibition at 30 µM in test [1] and in test [2] was < 50% in each case.
Turning to `Nc1nc(N2CCN(Cc3ccc(Cl)cc3Cl)c3ccccc3C2)c2cn[nH]c2n1` [Compound 32, 4-[1-(2,4-dichlorobenzyl)-1,2,3,5-tetrahydro-4H-1,4-benzodiazepin-4-yl]-1H-pyrazolo[3,4-d]pyrimidin-6-amine], the inhibition at 30 µM in test [1] and in test [2] was < 50% in each case.
Take `COc1cccc(CN2CCN(c3nc(N)nc4[nH]ncc34)Cc3ccccc32)c1` [Compound 1, 4-[1-(3-methoxybenzyl)-1,2,3,5-tetrahydro-4H-1,4-benzodiazepin-4-yl]-1H-pyrazolo[3,4-d]pyrimidin-6-amine]: the inhibition at 30 µM in test [1] and in test [2] was 50 to 79% in each case.
In the case of `Nc1nc(N2CCN(Cc3ccc(F)cc3F)c3ccccc3C2)c2nc[nH]c2n1` [Compound 37, 6-[1-(2,4-difluorobenzyl)-1,2,3,5-tetrahydro-4H-1,4-benzodiazepin-4-yl]-9H-purin-2-amine], the inhibition at 30 µM was 50 to 79% in test [1] and < 50% in test [2].
Regarding `COc1cccc(CN2CCN(c3nc(N)nc4[nH]cnc34)Cc3ccccc32)c1` [Compound 2, 6-[1-(3-methoxybenzyl)-1,2,3,5-tetrahydro-4H-1,4-benzodiazepin-4-yl]-9H-purin-2-amine], the figures for the inhibition at 30 µM in test [1] and in test [2] were 50 to 79% and < 50%, respectively.
